Measurements reported in patent US20140363871A1, “PROCESS FOR OBTAINING COPPER NANOPARTICLES FROM A FUNGUS SELECTED BETWEEN HYPOCREA LIXII AND TRICHODERMA KONINGIOPSIS AND USE OF FUNGI SELECTED BETWEEN HYPOCREA LIXII AND TRICHODERMA KONINGIOPSIS IN BIOREMEDIATION OF WASTEWATER AND PRODUCTION OF COPPER NANOPARTICLES” (VALE S.A., priority 2013, published 2014).

Columns and labels:
T. koningiopsis = experiment: Minimum inhibitory concentration in agar medium (spot plate method); assay type: cell-based, Trichoderma koningiopsis; settings: T. koningiopsis on SDA plates with copper 50-2000 mg L^−1, 25° C., at least 5 days
Description: (§1) Copper tolerance of the isolated fungus was determined as the minimum inhibitory concentration (MIC) by the spot plate method [Ahmad I, Ansari M I, Aqil F (2006) Biosorption of Ni, Cr and Cd by metal tolerante Aspergillus niger and Penicillium sp using single and multi-metal solution. Indian J Exp Biol 44: 73-76]. SDA plates containing different concentrations of copper (50 to 2000 mg L^−1) were prepared and inocula of the tested fungus were spotted onto the metal and control plates (plate without metal). The plates were incubated at 25° C. for at least 5 days. The MIC is defined as the lowest concentration of metal that inhibits visible growth of the isolate.

H. lixii = experiment: as above; assay type: cell-based, Hypocrea lixii; settings: H. lixii on SDA plates with copper 50-2000 mg L^−1, 25° C., at least 5 days
Description: as §1

O.O.[Cl][Cu][Cl] [copper, CuCl2.2H2O]
minimum inhibitory concentration (MIC), tolerance to copper (T. koningiopsis): 1057 µg/mL | minimum inhibitory concentration (MIC), tolerance to copper (H. lixii): 528 µg/mL
